Inhibition data for 15 compounds are collected here from patent US10189785B2, “Heterocyclic compound” (TAKEDA PHARMACEUTICAL COMPANY LIMITED, priority 2015, dated 2019).

Assay [1] addresses T1, SPT (SPT2-expressing membrane fraction: human SPT1, human SPT2 and human ssSPTa) (Homo sapiens, UniProt O15269+O15270).
T1 construct: Full-length human SPT1, human SPT2 and human ssSPTa used; made in house; host or cells: FreeStyle 293 cells (pcDNA3.1 vectors, cotransfection); crude membrane fraction used
T1 sequence (O15269 1-473): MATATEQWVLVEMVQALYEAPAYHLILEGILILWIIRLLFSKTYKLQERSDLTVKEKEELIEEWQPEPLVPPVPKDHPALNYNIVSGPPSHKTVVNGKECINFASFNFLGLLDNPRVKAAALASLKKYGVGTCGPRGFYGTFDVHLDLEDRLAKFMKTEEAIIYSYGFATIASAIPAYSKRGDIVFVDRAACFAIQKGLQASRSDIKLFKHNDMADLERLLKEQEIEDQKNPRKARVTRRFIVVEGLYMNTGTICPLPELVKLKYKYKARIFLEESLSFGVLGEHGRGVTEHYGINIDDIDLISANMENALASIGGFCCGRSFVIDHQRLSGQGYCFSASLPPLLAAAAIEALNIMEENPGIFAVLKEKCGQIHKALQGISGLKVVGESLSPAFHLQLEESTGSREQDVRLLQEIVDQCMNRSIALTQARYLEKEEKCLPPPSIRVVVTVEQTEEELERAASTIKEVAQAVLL
T1 sequence (O15270 1-562): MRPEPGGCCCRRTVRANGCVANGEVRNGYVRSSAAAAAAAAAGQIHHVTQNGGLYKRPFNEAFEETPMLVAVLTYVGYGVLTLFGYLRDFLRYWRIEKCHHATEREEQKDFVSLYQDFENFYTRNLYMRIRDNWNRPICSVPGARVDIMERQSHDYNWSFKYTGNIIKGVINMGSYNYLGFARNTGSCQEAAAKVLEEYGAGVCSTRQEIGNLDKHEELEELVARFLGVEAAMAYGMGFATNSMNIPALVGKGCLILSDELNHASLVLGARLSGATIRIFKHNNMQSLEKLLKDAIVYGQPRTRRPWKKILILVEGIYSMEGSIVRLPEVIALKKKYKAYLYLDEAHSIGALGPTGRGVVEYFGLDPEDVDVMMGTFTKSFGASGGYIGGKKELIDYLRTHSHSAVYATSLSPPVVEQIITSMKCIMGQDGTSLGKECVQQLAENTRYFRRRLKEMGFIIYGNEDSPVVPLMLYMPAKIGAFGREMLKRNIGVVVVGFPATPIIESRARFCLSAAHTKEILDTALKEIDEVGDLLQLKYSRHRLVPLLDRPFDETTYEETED
T1 sequence (Q969W0 1-71 partner): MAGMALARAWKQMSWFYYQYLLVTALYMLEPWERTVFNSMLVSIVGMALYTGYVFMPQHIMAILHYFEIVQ
Put plainly: SPT enzyme inhibition test (Test Example 1). Format: biochemical. The following applies: read-out: Rate of inhibition (%) at 1 μM. Here is the method:
After culture for 3 days, the cells were recovered and frozen at −80° C. to obtain expressing cells. The frozen cells were suspended in a 50 mM Hepes buffer (pH 7.5) containing 250 mM sucrose, 5 mM ethylenediaminetetraacetic acid (EDTA), 5 mM dithiothreitol (DTT) and Complete, EDTA-free (Roche Applied Science, Penzberg, Upper Bavaria, Germany). The cells were disrupted (on ice, 20,000 rpm, 20 sec×2) using POLYTORON (Central Scientific Commerce, Inc.). After centrifugation at 2000 rpm (850×g) for 10 minutes, the supernatant was recovered. Subsequently, the supernatant was centrifuged at 40,000 rpm (186,010×g) for 60 minutes, and the supernatant was discarded. The pellets were suspended in a 50 mM Hepes buffer (pH 7.5) containing 5 mM EDTA, 5 mM DTT and Complete, EDTA-free, passed through a 40-μm cell strainer and stored at −80° C. The resultant was used as a SPT2-expressing membrane fraction. The protein concentration was determined using CBB Protein Assay with bovine serum albumin used as standards.
5 μL of each test compound was mixed with 10 μL of the 100 μg/mL SPT2-expressing membrane fraction using an assay buffer (100 mM Hepes (pH 8.0) containing 2.5 mM EDTA, 5 mM DTT and 0.01% fatty acid-free bovine serum albumin), and the mixture was left standing at room temperature for 60 minutes. Subsequently, 5 μL of a substrate solution containing 2 mM L-serine and 20 μM palmitoyl CoA was added thereto, and an enzyme reaction was carried out in a 384-well plate using 20 μL in total of the reaction system. After reaction at room temperature for 15 minutes, the reaction was terminated by the addition of 20 μL of a 2% aqueous formic acid solution. Subsequently, 40 μL of acetonitrile containing 600 nM C17-sphinganine (Avanti Polar Lipids, Inc., Alabaster, Ala., U.S.) was added thereto as an internal standard. The reaction sample was subjected to on-line solid-layer extraction using RapidFire 300 (Agilent Technologies Inc., Santa Clara, Calif., U.S.). […] Mass chromatograms were obtained using Analyst software (version 1.5.0, AB SCIEX). Their mass chromatogram areas were respectively calculated, and the rate of inhibition (%) by the test compound was calculated using an area ratio (the value of the reaction product was divided by the value of the internal standard).

Assay [2] deals with lung adenocarcinoma cell line HCC4006. In words: HCC4006 cell growth inhibition test (Test Example 2). Format: cell-based. As to conditions: Homo sapiens, 120 h; 1 μM test compound; HCC4006 cells, culture for 5 days, CellTiter-Glo; read-out: Rate of inhibition (%) at 1 μM. Here is the method:
A lung adenocarcinoma cell line HCC4006 (ATCC) was cultured using an RPMI-1640 medium (Wako Pure Chemical Industries, Ltd.) containing 10% fetal bovine serum and penicillin/streptomycin. 250 cells per well were inoculated into 40 μL of a medium in a 384-well culture plate. On the next day, 10 μL of each test compound was added to the cells. After culture for 5 days, the medium was discarded, and 30 μL of CellTiter-Glo Luminescent Cell Viability Assay solution (Promega Corp., Fitchburg, Wis., U.S.) was added to each well. Light emission signals were measured using EnVision (PerkinElmer, Inc., Waltham, Mass., U.S.).
The rate of inhibition (%) by the test compound was calculated according to the following expression: Rate of inhibition (%)=(1−(Count of the test compound−Blank)/(Control−Blank))×100
In the above expression, a count under compound non-addition conditions was indicated as a control, and a count under cell-free conditions was indicated as a blank.
A general note: ATP-based viability assays read luminescence as a measure of living cells.

Take `COc1cc(C(=O)N2CC[C@@H](NC(=O)c3ccccc3OC(F)(F)F)[C@@H](c3ccccc3)C2)cnc1OC` [Example 70B, N-((3S,4R)-1-((5,6-dimethoxypyridin-3-yl)carbonyl)-3-phenylpiperidin-4-yl)-2-(trifluoromethoxy)benzamide]: the inhibition at 1 µM in assay [1] came out at 100%; in assay [2] it was 56%.

Consider `Cc1cc(C(=O)N2CC[C@@H](NC(=O)c3ncccc3C(F)(F)F)[C@@H](c3ccccc3)C2)cc2nccnc12` [Example 74B, N-((3S,4R)-1-((8-Methylquinoxalin-6-yl)carbonyl)-3-phenylpiperidin-4-yl)-3-(trifluoromethyl)pyridine-2-carboxamide], for which the inhibition at 1 µM in assay [1] worked out at 100%; in assay [2], 45%.

Take `COc1cc(C(=O)N2CCC(NC(=O)c3ccccc3Cl)c3c2cnn3C)cnc1OC` (stereo not drawn) [Example 80A, 2-chloro-N-(4-((5,6-dimethoxypyridin-3-yl)carbonyl)-1-methyl-4,5,6,7-tetrahydro-1H-pyrazolo[4,3-b]pyridin-7-yl)benzamide]: the values for the inhibition at 1 µM in assay [1] and in assay [2] were 99% and 44%, respectively.

Consider `COc1ncc(C(=O)N2CCC(NC(=O)c3ccccc3Cl)c3c2cnn3C)cc1Cl` (stereo not drawn) [Example 84A, 2-chloro-N-(4-((5-chloro-6-methoxypyridin-3-yl)carbonyl)-1-methyl-4,5,6,7-tetrahydro-1H-pyrazolo[4,3-b]pyridin-7-yl)benzamide], for which the inhibition at 1 µM in assay [1] turned out to be 98%; in assay [2], 32%.

As for `COc1ncc(C(=O)N2CCC(NC(=O)c3ccccc3C(F)(F)F)c3c2cnn3C)cc1Cl` (stereo not drawn) [Example 85A, N-(4-((5-chloro-6-methoxypyridin-3-yl)carbonyl)-1-methyl-4,5,6,7-tetrahydro-1H-pyrazolo[4,3-b]pyridin-7-yl)-2-(trifluoromethyl)benzamide], the inhibition at 1 µM in assay [1] amounted to 99%; in assay [2], 39%.

In the case of `Cn1nc(C(F)(F)F)cc1C(=O)N[C@@H]1CCN(C(=O)c2cc(Cl)c3nccnc3c2)C[C@@H]1c1ccc(F)cc1` [Example 96B, N-((3S,4R)-1-((8-chloroquinoxalin-6-yl)carbonyl)-3-(4-fluorophenyl)piperidin-4-yl)-1-methyl-3-(trifluoromethyl)-1H-pyrazole-5-carboxamide], the inhibition at 1 µM in assay [1] was found to be 102%; in assay [2], 49%.

For `COc1ccc(C(=O)N2CCC(NC(=O)c3ncccc3C(F)(F)F)c3c2cnn3C)cc1OC` (stereo not drawn) [Example 100A, N-(4-(3,4-dimethoxybenzoyl)-1-methyl-4,5,6,7-tetrahydro-1H-pyrazolo[4,3-b]pyridin-7-yl)-3-(trifluoromethyl)pyridine-2-carboxamide], the inhibition at 1 µM in assay [1] was 97%; in assay [2], 39%.

With `CS(=O)(=O)c1ccc(C(=O)N2CC[C@@H](NC(=O)c3ccccc3OC(F)(F)F)[C@@H](c3ccccc3)C2)cc1Cl` [Example 102B, N-((3S,4R)-1-(3-chloro-4-(methylsulfonyl)benzoyl)-3-phenylpiperidin-4-yl)-2-(trifluoromethoxy)benzamide], the inhibition at 1 µM worked out at 100% in assay [1] and 46% in assay [2].

For the compound `Cn1cnc2ccc(C(=O)N3CC[C@@H](NC(=O)c4ccccc4OC(F)(F)F)[C@@H](c4ccccc4)C3)cc21` [Example 104B, N-((3S,4R)-1-((1-methyl-1H-benzimidazol-6-yl)carbonyl)-3-phenylpiperidin-4-yl)-2-(trifluoromethoxy)benzamide], the inhibition at 1 µM in assay [1] turned out to be 101%; in assay [2], 53%.

Take `COc1ncc(C(=O)N2CCC(NC(=O)c3ccc(Cl)cc3C(F)(F)F)c3c2cnn3CC(F)F)cc1Cl` (stereo not drawn) [Example 126A, 4-Chloro-N-(4-((5-chloro-6-methoxypyridin-3-yl)carbonyl)-1-(2,2-difluoroethyl)-4,5,6,7-tetrahydro-1H-pyrazolo[4,3-b]pyridin-7-yl)-2-(trifluoromethyl)benzamide]: the figures for the inhibition at 1 µM in assay [1] and in assay [2] were 101% and 45%, respectively.

For the compound `Cn1ncc(C(=O)N[C@@H]2CCN(C(=O)c3ccc4nccnc4c3)C[C@@H]2c2ccccc2)c1Cl` [Example 132B, 5-chloro-1-methyl-N-((3S,4R)-3-phenyl-1-(quinoxalin-6-ylcarbonyl)piperidin-4-yl)-1H-pyrazole-4-carboxamide], the inhibition at 1 µM in assay [1] came out at 98%; in assay [2], 45%.

Regarding `COc1cc(C(=O)N2CCC(NC(=O)c3ccccc3OC(F)(F)F)c3c2cnn3C)cnc1OC` (stereo not drawn) [Example 133A, N-(4-((5,6-Dimethoxypyridin-3-yl)carbonyl)-1-methyl-4,5,6,7-tetrahydro-1H-pyrazolo[4,3-b]pyridin-7-yl)-2-(trifluoromethoxy)benzamide], the inhibition at 1 µM in assay [1] was 101%; in assay [2], 50%.

For `COc1cc(C(=O)N2CC[C@@H](NC(=O)c3cnccc3C(F)(F)F)[C@@H](c3ccccc3)C2)cnc1OC` [Example 139B, N-((3S,4R)-1-((5,6-dimethoxypyridin-3-yl)carbonyl)-3-phenylpiperidin-4-yl)-4-(trifluoromethyl)nicotinamide], the inhibition at 1 µM in assay [1] was 100%; in assay [2], 52%.

In the case of `COc1cc(C(=O)N2CC[C@@H](NC(=O)c3cccnc3C(F)(F)F)[C@@H](c3ccccc3)C2)cnc1OC` [Example 140B, N-((3S,4R)-1-((5,6-dimethoxypyridin-3-yl)carbonyl)-3-phenylpiperidin-4-yl)-2-(trifluoromethyl)nicotinamide], the inhibition at 1 µM in assay [1] is 101%; in assay [2], 49%.

Take `COc1cc(C(=O)N2CC[C@@H](NC(=O)c3ccccc3S(C)(=O)=O)[C@@H](c3ccccc3)C2)cnc1OC` [Example 141B, N-((3S,4R)-1-((5,6-dimethoxypyridin-3-yl)carbonyl)-3-phenylpiperidin-4-yl)-2-(methylsulfonyl)benzamide]: the inhibition at 1 µM was 101% in assay [1] and 52% in assay [2].

In general, inhibition refers to the relative decrease from the control value, in per cent.
